Data as given in the NIST ThermoML archive (doi:10.1016/j.fluid.2004.11.019).

Assay: xn = mol fraction of the nth substance listed
Settings: Liquid

CCO [ethanol] + O
mass density [kg/m3]
Settings	100 kPa	10000 kPa	20000 kPa	30000 kPa	40000 kPa
298.15 K, x1 = 0.003	995.3	999.8	1004.2	1008.5	1012.7
298.15 K, x1 = 0.0042	994.5	998.9	1003.2	1007.4	1011.5
298.15 K, x1 = 0.0082	993	997.3	1001.7	1005.9	1010
298.15 K, x1 = 0.0119	991.5	995.8	1000.1	1004.3	1008.3
298.15 K, x1 = 0.0158	989.8	994	998.2	1002.4	1006.4
298.15 K, x1 = 0.0184	988.4	992.6	996.8	1000.9	1005
298.15 K, x1 = 0.0219	987.6	991.7	995.9	1000.1	1004.1
298.15 K, x1 = 0.0255	986	990.2	994.4	998.4	1002.4
298.15 K, x1 = 0.0279	984.7	988.7	992.9	996.9	1000.8
298.15 K, x1 = 0.0315	984	988	992.1	996.1	1000
298.15 K, x1 = 0.0366	981.6	985.7	989.8	993.8	997.6
298.15 K, x1 = 0.0392	980.7	984.7	988.6	992.6	996.4
298.15 K, x1 = 0.0439	979.2	983.3	987.3	991.2	995.1
298.15 K, x1 = 0.0483	977.5	981.6	985.6	989.5	993.3
298.15 K, x1 = 0.0516	977.1	981	985.1	988.9	992.7
298.15 K, x1 = 0.0559	975.8	979.8	983.8	987.7	991.5
298.15 K, x1 = 0.06	974.5	978.5	982.4	986.3	990.1
298.15 K, x1 = 0.0652	972.9	976.9	980.8	984.7	988.4
298.15 K, x1 = 0.0679	972.2	976.1	980	983.9	987.6
298.15 K, x1 = 0.0722	971	974.9	978.7	982.6	986.3
298.15 K, x1 = 0.0801	968.6	972.4	976.2	980	983.7
298.15 K, x1 = 0.084	967.9	971.8	975.7	979.5	983.2
298.15 K, x1 = 0.0879	966.7	970.6	974.4	978.2	981.9
298.15 K, x1 = 0.0926	965.6	969.3	973.2	976.9	980.6
298.15 K, x1 = 0.0958	964.6	968.5	972.4	976.1	979.8
298.15 K, x1 = 0.1006	963.2	967.1	971	974.8	978.5
298.15 K, x1 = 0.1111	960.2	964.1	968	971.7	975.4
298.15 K, x1 = 0.1225	956.8	960.7	964.7	968.5	972.2
298.15 K, x1 = 0.1296	954.9	958.8	962.8	966.7	970.4
298.15 K, x1 = 0.1402	951.8	955.8	961.3	963.7	967.3
298.15 K, x1 = 0.151	948.4	952.5	956.6	960.5	964.3
298.15 K, x1 = 0.1601	945.6	949.8	953.9	957.9	961.7
298.15 K, x1 = 0.1703	942.5	946.7	950.9	955	958.9
298.15 K, x1 = 0.18	939.8	943.9	948.1	952.2	956.2
298.15 K, x1 = 0.1903	936.5	940.9	945.2	949.3	953.3
298.15 K, x1 = 0.1996	933.5	938	942.3	946.5	950.5
298.15 K, x1 = 0.2269	925.4	930	934.5	938.7	942.9
298.15 K, x1 = 0.2502	918.5	923.3	928	932.4	936.7
298.15 K, x1 = 0.2745	911.7	916.6	921.3	925.9	930.3
298.15 K, x1 = 0.3009	904.5	909.6	914.5	919.2	923.7
298.15 K, x1 = 0.35	891.9	897.1	902.3	907.2	911.9
298.15 K, x1 = 0.4034	879.4	884.9	890.4	895.5	900.4
298.15 K, x1 = 0.4501	868.8	874.7	880.4	885.7	890.8
298.15 K, x1 = 0.498	859.3	865.4	871.3	876.8	882
298.15 K, x1 = 0.5501	849.5	855.8	861.9	867.6	873
298.15 K, x1 = 0.5998	840.9	847.4	853.7	859.5	865.1
298.15 K, x1 = 0.6489	832.7	839.5	846	852	857.7
298.15 K, x1 = 0.6967	825.2	832.3	839	845.1	851
298.15 K, x1 = 0.7475	818.2	825.4	832.3	838.5	844.5
298.15 K, x1 = 0.7996	810.9	818.3	825.4	831.9	838.1
298.15 K, x1 = 0.8484	804.4	812.1	819.3	825.9	832.3
298.15 K, x1 = 0.8993	798	805.8	813.3	820	826.5
298.15 K, x1 = 0.9503	791.7	799.9	807.5	814.5	821
298.15 K, x1 = 1	785.7	794	801.9	808.9	815.7
323.15 K, x1 = 0.003	986.5	990.8	994.9	–	–
323.15 K, x1 = 0.0042	985.4	989.6	993.9	–	–
323.15 K, x1 = 0.0082	984	988.2	992.4	–	–
323.15 K, x1 = 0.0119	982.7	986.9	991.1	–	–
323.15 K, x1 = 0.0158	980.5	984.7	988.9	–	–
323.15 K, x1 = 0.0184	979.2	983.3	987.5	–	–
323.15 K, x1 = 0.0219	978	982.2	986.3	–	–
323.15 K, x1 = 0.0255	976.5	980.6	984.7	–	–
323.15 K, x1 = 0.0279	974.8	979	983.1	–	–
323.15 K, x1 = 0.0315	973.9	978.1	982.2	–	–
323.15 K, x1 = 0.0366	971.4	975.6	979.6	–	–
323.15 K, x1 = 0.0392	970.2	974.3	978.4	–	–
323.15 K, x1 = 0.0439	968.6	972.8	976.8	–	–
323.15 K, x1 = 0.0483	966.6	970.7	974.8	–	–
323.15 K, x1 = 0.0516	965.9	970	974	–	–
323.15 K, x1 = 0.0559	964.5	968.6	972.7	–	–
323.15 K, x1 = 0.06	962.9	967.1	971.2	–	–
323.15 K, x1 = 0.0652	960.9	965	969.1	–	–
323.15 K, x1 = 0.0679	960.2	964.3	968.3	–	–
323.15 K, x1 = 0.0722	958.3	962.5	966.6	–	–
323.15 K, x1 = 0.0801	955.1	959.3	963.4	–	–
323.15 K, x1 = 0.084	954.7	958.9	963	–	–
323.15 K, x1 = 0.0879	952.9	957.1	961.2	–	–
323.15 K, x1 = 0.0926	951.4	955.5	959.6	–	–
323.15 K, x1 = 0.0958	950.1	954.4	958.5	–	–
323.15 K, x1 = 0.1006	948.5	952.8	956.9	–	–
323.15 K, x1 = 0.1111	944.7	949	953.2	–	–
323.15 K, x1 = 0.1225	940.6	945.1	–	–	–
323.15 K, x1 = 0.1296	938.2	942.6	–	–	–
323.15 K, x1 = 0.1402	934.5	939	–	–	–
323.15 K, x1 = 0.151	930.7	935.2	–	–	–
323.15 K, x1 = 0.1601	927.5	932.2	–	–	–
323.15 K, x1 = 0.1703	924	928.8	–	–	–
323.15 K, x1 = 0.18	920.6	925.5	–	–	–
323.15 K, x1 = 0.1903	917.3	922.1	–	–	–
323.15 K, x1 = 0.1996	914.1	919	–	–	–
323.15 K, x1 = 0.2269	905.2	910.3	–	–	–
323.15 K, x1 = 0.2502	898.1	903.4	–	–	–
323.15 K, x1 = 0.2745	890.8	896.3	–	–	–
323.15 K, x1 = 0.3009	883.5	889.2	–	–	–
323.15 K, x1 = 0.35	870.2	876.2	–	–	–
323.15 K, x1 = 0.4034	857.3	863.7	–	–	–
323.15 K, x1 = 0.4501	846.7	853.3	–	–	–
323.15 K, x1 = 0.498	837	843.9	–	–	–
323.15 K, x1 = 0.5501	826.9	834.3	–	–	–
323.15 K, x1 = 0.5998	818.4	826.3	–	–	–
323.15 K, x1 = 0.6489	810.1	817.9	–	–	–
323.15 K, x1 = 0.6967	802.8	810.9	–	–	–
323.15 K, x1 = 0.7475	795.4	803.8	–	–	–
323.15 K, x1 = 0.7996	788.4	796.9	–	–	–
323.15 K, x1 = 0.8484	781.9	790.8	–	–	–
323.15 K, x1 = 0.8993	775.6	784.7	–	–	–
323.15 K, x1 = 0.9503	769.5	779	–	–	–
323.15 K, x1 = 1	763.7	773.4	–	–	–
